Assays:
Assay type in all cases: biochemical
[1] = target: T1, PaPPK2III (Pseudomonas aeruginosa, UniProt Q9HYF1); assay: coupled hexokinase / G6PD assay, […] nm; conditions: 100 mM Tris-HCl pH 8.0, 35 °C, 10 mM ADP, 50 mM polyP6, 25 mM MgCl2
T1 construct: gene PA3455; expressed in E. coli BL21(DE3) from pET-28a, Ni-NTA purified
T1 sequence (Q9HYF1 1-496): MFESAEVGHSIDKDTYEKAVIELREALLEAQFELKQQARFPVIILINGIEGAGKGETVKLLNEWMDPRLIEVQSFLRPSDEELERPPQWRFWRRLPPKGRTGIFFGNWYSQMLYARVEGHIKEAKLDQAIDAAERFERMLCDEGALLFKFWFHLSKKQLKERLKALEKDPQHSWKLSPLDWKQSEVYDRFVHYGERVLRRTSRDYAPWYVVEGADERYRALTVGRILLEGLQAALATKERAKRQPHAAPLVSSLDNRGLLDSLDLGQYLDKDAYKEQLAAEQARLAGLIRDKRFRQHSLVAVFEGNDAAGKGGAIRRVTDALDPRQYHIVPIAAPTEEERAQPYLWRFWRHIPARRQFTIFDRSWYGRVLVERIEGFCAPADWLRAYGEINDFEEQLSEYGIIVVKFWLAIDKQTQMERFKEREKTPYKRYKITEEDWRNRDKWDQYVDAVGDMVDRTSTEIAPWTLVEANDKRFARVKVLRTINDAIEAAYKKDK

[2] = target: T2, PaPPK2II (Pseudomonas aeruginosa, UniProt Q9I154); assay: coupled hexokinase / G6PD assay, […] nm; conditions: 100 mM Tris-HCl pH 8.0, 35 °C, 10 mM ADP, 50 mM polyP6, 25 mM MgCl2
T2 construct: gene PA2428; expressed in E. coli BL21(DE3) from pET-28a, Ni-NTA purified
T2 sequence (Q9I154 1-304): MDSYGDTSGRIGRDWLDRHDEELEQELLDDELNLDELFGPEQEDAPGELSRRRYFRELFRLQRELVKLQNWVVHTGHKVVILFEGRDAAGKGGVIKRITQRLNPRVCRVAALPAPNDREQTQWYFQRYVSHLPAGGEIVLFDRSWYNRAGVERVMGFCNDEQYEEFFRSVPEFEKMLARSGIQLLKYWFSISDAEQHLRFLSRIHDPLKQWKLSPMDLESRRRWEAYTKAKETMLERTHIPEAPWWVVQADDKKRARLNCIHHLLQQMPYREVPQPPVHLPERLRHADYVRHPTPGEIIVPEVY

[3] = target: T3, EbPPK (Erysipelotrichaceae bacterium, UniProt P0DY74); assay: coupled hexokinase / G6PD assay, […] nm; conditions: 100 mM Tris-HCl pH 8.0, 35 °C
T3 construct: gene DHS57_05705; synthesized gene expressed in E. coli BL21(DE3) from pXMJ-19, Ni-NTA purified
T3 sequence (P0DY74 1-298): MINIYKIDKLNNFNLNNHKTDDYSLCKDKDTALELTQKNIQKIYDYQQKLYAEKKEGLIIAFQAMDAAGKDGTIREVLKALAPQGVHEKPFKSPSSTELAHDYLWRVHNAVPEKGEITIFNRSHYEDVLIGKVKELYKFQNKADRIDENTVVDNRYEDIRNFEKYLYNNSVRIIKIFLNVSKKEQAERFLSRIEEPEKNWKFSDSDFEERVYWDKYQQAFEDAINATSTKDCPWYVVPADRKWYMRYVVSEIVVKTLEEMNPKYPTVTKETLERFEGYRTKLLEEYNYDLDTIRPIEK

[4] = target: T4, GS (Corynebacterium glutamicum, UniProt H7C697); assay: L-glutamine production, HPLC with OPA derivatization; conditions: Tris-HCl pH 8.0, 37 °C, 100 mM (NH4)2SO4, 150 mM ATP, 50 mM MgCl2
T4 construct: gene glnA; expressed in E. coli BL21(DE3), Ni-NTA purified
T4 sequence (H7C697 1-477): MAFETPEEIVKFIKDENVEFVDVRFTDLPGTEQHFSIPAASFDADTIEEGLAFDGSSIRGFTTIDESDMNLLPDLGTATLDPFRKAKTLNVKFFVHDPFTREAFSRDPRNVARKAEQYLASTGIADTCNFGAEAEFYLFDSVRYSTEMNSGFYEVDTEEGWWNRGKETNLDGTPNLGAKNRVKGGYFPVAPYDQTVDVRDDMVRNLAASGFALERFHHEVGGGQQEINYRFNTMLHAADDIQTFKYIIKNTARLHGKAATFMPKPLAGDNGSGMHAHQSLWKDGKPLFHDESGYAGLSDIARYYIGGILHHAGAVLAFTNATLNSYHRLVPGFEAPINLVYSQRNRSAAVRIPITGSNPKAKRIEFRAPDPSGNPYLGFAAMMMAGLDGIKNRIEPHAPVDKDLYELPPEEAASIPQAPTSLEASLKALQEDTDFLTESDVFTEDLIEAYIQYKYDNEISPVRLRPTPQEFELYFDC

[5] = target: T5, ChPPK (Cytophaga hutchinsonii, UniProt A0A6N4SMB5); assay: coupled hexokinase / G6PD assay, […] nm, double reciprocal plot; conditions: 100 mM Tris-HCl pH 8.0, 35 °C, MgCl2; polyP6 1 to 7.5 mM, ADP as co-substrate
T5 construct: gene CHU_0107; synthesized gene expressed in E. coli BL21(DE3) from pXMJ-19, Ni-NTA purified
T5 sequence (A0A6N4SMB5 1-305): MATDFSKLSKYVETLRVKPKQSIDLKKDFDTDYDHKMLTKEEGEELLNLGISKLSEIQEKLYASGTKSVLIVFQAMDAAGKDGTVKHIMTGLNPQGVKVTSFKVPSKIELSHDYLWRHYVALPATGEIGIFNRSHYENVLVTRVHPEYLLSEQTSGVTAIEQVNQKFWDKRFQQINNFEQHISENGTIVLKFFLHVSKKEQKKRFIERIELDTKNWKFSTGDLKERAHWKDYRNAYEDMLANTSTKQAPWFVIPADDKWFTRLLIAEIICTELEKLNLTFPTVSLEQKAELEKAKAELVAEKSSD

[6] = target: T6, ChPPK (Cytophaga hutchinsonii, UniProt A0A6N4SMB5, K103E); assay: as above; conditions: 100 mM Tris-HCl pH 8.0, 35 °C, MgCl2; polyP6 1 to 7.5 mM, ADP as co-substrate
T6 construct: gene CHU_0107; synthesized gene expressed in E. coli BL21(DE3) from pXMJ-19, Ni-NTA purified

[7] = target: T7, ChPPK (Cytophaga hutchinsonii, UniProt A0A6N4SMB5, D82N); assay: as above; conditions: 100 mM Tris-HCl pH 8.0, 35 °C, MgCl2; polyP6 1 to 7.5 mM, ADP as co-substrate
T7 construct: gene CHU_0107; synthesized gene expressed in E. coli BL21(DE3) from pXMJ-19, Ni-NTA purified
T7 sequence (A0A6N4SMB5 entry or part of it D82N): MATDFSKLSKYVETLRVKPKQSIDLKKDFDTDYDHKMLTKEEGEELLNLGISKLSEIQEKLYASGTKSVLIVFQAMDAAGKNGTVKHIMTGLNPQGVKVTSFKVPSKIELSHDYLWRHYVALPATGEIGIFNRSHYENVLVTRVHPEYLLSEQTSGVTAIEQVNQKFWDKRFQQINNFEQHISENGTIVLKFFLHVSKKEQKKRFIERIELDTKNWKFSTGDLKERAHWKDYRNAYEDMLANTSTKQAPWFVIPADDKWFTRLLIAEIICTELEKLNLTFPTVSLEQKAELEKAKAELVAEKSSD

T6 sequence (A0A6N4SMB5 entry or part of it K103E): as the sequence (A0A6N4SMB5 entry or part of it D82N) above, with N82D, K103E counted along it

`Nc1ncnc2c1ncn2[C@@H]1O[C@H](COP(=O)(O)OP(=O)(O)O)[C@@H](O)[C@H]1O` [ADP] was tested, and the “coupled hexokinase / G6PD assay, 340 nm” value [1] was “the specific activities of the seven PPK enzymes”, the “coupled hexokinase / G6PD assay, 340 nm” value [2] was “the specific activities of the seven PPK enzymes” and the “coupled hexokinase / G6PD assay, 340 nm” value ([3]; 10 mM ADP, 50 mM polyP6, 25 mM MgCl2) was “polyP3, polyP6 and polyPn were carried out to show the specific activities”.

With `Nc1ncnc2c1ncn2[C@@H]1O[C@H](COP(=O)(O)O)[C@@H](O)[C@H]1O` [AMP] the “coupled hexokinase / G6PD assay, 340 nm” value ([3]; 10 mM AMP, polyP6, 25 mM MgCl2) was “EbPPK was capable of the best catalytic efficiency for converting AMP”.

In the case of `N[C@@H](CCC(=O)O)C(=O)O` [L-glutamate], the “L-glutamine production, HPLC with OPA derivatization” value [4] is reported as “We performed glutamine production from glutamate with GS enzyme”.

In the case of polyP6, the Km [5] is reported as 2300 ± 20 µM, the Km [6] is reported as 2240 ± 20 µM and the Km [7] is reported as 2120 ± 10 µM.

From paper PMC10401862, “A high-throughput dual system to screen polyphosphate kinase mutants for efficient ATP regeneration in L-theanine biocatalysis” (Biotechnology for Biofuels and Bioproducts, 2023)
